In one experiment the test system is ApoA4 mRNA. The experiment can be described thus: Real-time PCR of liver ApoA4 mRNA in mice administered rh-HGF and c-Met inhibitor (Example 2). Type of experiment: in vivo, mouse. To be noted: PF-04217903 50 mg/kg oral 1 hour before rh-HGF; FIG. 2. Here is the method: (§1) To BALB/cAnNCrlCrlj male 6 weeks-old mice (CHARLES RIVER JAPAN), c-Met inhibitor PF-04217903 (50 mg/kg) (Selleck Chemicals #S1094, lot. 05) or vehicle (5% DMSO, 10% Tween80, 6.7 mmol/L aqueous hydrochloric acid solution) was orally administered at a dose of 10 mL/kg, and after 1 hour, rh-HGF (0.5, 1.5, 5.0, or 15 mg/kg) or PBS was intravenously administered. […] After euthanization, hepatic tissue was collected and immersed in RNA later (Ambion, #AM7021). Serum was collected from the blood collected.
From the harvested liver, total RNA was purified with TRIZOL Reagent (Invitrogen, #15596-018), RNeasy Mini Kit (QIAGEN, #74104), and RNase-Free DNase set (QIAGEN, #79254), and RNA concentration was measured by absorbance.
Quantification of ApoA4 mRNA by real-time PCR method was carried out according to Example 1.
(§2) With the results of ApoA4 mRNA quantification, Dunnett's multiple comparison test was carried out between the control and the rh-HGF administration groups.
On the technique in general: Quantitative PCR measures a nucleic acid by following its amplification.

The test system of a further experiment is ApoA4 protein. In words: Western blot quantification of serum ApoA4 protein in mice administered rh-HGF and c-Met inhibitor (Example 2). Type of experiment: in vivo, mouse. To be noted: PF-04217903 50 mg/kg oral 1 hour before rh-HGF; FIG. 3. Here is the method:
as §1
Using the above serum, ApoA4 protein was quantified by Western blot method. To the serum diluted 200-folds with PBS (−) (Wako), ¼ volume of the electrophoresis buffer solution (313 mM Tris-HCl (pH 6.8), 10% SDS, 30% Glycerol, 0.2 mg/mL Bromo-phenol blue, and 25% 2-Mercaptoethnol) was added (the final dilution of the serum will be 250-folds), and this was subjected to heat treatment at 95° C. for 3 minutes. […] After washing three times with the above wash solution, chemiluminescence solution SuperSignal West Dura Extended Duration Substrate (Thermo Scientific) was added to allow luminescence, and ApoA4 protein was detected with LAS-4000 (FUJIFILM).
For the results of serum ApoA4 protein quantification, Dunnett's multiple comparison test was carried out between the control and the rh-HGF administration groups.

A further experiment deals with human ApoA4 mRNA. In words: Real-time PCR of human ApoA4 mRNA in human primary culture hepatocytes treated with rh-HGF. It is filed as cell-based. To be noted: PF-04217903 100 nmol/L added 1 hour before rh-HGF; FIG. 5. Here is the method:
(§3) Human primary culture hepatocytes seeded in a 24-well plate (3.8×10^5 cells/well, Biopredic International, #HEP220-MW24) were cultured for three days in Incubation Medium (product name: Biopredic International, #MIL214), then c-Met inhibitor PF-04217903 (final concentration 100 nmol/L) (Selleck Chemicals, #S1094, lot. 05) or vehicle (DMSO) was added, and after 1 hour, rh-HGF (final concentration 100, 300, or 1000 ng/mL) or (Incubation Medium) for the control group (Control) was added.
From hepatocytes 24 hours after addition of rh-HGF, total RNA was purified with RNeasy Mini Kit (QIAGEN, #74104) and RNase-Free DNase set (QIAGEN, #79254), and RNA concentration was measured by absorbance. The purified total RNA was reverse transcripted using High-Capacity cDNA Reverse Transcription Kit with RNase Inhibitor (Applied Biosystems, #4374966) to create cDNA. With the cDNA obtained as the template, the amount of ApoA4 mRNA expressed was examined by real-time PCR method. 18S rRNA was used as the internal control for examination. […]
as §2

The subject of another experiment is human ApoA4 protein. The experiment can be described thus: Western blot quantification of human ApoA4 protein in human hepatocyte culture supernatant. Type of experiment: cell-based. Particulars: PF-04217903 100 nmol/L added 1 hour before rh-HGF; FIG. 6. Here is the method: as §3
Using hepatocyte culture supernatant (the same culture supernatant as that of cells for preparation of mRNA) 24 Hours after addition of rh-HGF, ApoA4 protein was quantified by Western blot method. […] After washing three times with the above wash solution, chemiluminescence solution SuperSignal West Dura Extended Duration Substrate (Thermo Scientific) was added to allow luminescence, and ApoA4 protein was detected with LAS-4000 (FUJIFILM).
With the quantification results of ApoA4 protein, Dunnett's multiple comparison test was carried out between the control and the rh-HGF administration groups.
On the technique in general: A western blot detects proteins with antibodies after separation by electrophoresis.

SMILES strings stand for the structures.

`OCCn1cc(-c2cnc3nnn(Cc4ccc5ncccc5c4)c3n2)cn1` [PF-04217903, reference compound]: the “Effect on rh-HGF induction of liver ApoA4 mRNA expression” value with ApoA4 mRNA is “significantly inhibited”. Also, the “Effect on rh-HGF induction of serum ApoA4 protein” value in the experiment with ApoA4 protein was “inhibited”. The “Effect on rh-HGF enhancement of human ApoA4 mRNA expression” value in the experiment with human ApoA4 mRNA is “inhibited”. The “Effect on rh-HGF enhancement of extracellular release of human ApoA4 protein” value with human ApoA4 protein was “inhibited”.
